Source: US20130315843A1, “COMPOSITION FOR REDUCTION OF TRPA1 AND TRPV1 SENSATIONS” (priority 2012, published 2013)
Where “and” joins values, the source holds several entries; their conditions need not be identical. Identical values can stand only once. Like-named read-outs stand apart in the source and are kept apart here. Blank lines part the entries; values can stand above or below the compound they belong to.

How the values were obtained:
[1] = biological target: human TRPA1 (Homo sapiens, UniProt O75762); assay: FLIPR intracellular Ca2+ assay, direct (agonist) effect on TRPA1; format: cell-based; parameters: expressed in transfected cells; conditions: for percent hydrogen peroxide activation of TRPA1 compared to control agonist: control 50 μM AITC
Chain of human TRPA1 (O75762 whole entry): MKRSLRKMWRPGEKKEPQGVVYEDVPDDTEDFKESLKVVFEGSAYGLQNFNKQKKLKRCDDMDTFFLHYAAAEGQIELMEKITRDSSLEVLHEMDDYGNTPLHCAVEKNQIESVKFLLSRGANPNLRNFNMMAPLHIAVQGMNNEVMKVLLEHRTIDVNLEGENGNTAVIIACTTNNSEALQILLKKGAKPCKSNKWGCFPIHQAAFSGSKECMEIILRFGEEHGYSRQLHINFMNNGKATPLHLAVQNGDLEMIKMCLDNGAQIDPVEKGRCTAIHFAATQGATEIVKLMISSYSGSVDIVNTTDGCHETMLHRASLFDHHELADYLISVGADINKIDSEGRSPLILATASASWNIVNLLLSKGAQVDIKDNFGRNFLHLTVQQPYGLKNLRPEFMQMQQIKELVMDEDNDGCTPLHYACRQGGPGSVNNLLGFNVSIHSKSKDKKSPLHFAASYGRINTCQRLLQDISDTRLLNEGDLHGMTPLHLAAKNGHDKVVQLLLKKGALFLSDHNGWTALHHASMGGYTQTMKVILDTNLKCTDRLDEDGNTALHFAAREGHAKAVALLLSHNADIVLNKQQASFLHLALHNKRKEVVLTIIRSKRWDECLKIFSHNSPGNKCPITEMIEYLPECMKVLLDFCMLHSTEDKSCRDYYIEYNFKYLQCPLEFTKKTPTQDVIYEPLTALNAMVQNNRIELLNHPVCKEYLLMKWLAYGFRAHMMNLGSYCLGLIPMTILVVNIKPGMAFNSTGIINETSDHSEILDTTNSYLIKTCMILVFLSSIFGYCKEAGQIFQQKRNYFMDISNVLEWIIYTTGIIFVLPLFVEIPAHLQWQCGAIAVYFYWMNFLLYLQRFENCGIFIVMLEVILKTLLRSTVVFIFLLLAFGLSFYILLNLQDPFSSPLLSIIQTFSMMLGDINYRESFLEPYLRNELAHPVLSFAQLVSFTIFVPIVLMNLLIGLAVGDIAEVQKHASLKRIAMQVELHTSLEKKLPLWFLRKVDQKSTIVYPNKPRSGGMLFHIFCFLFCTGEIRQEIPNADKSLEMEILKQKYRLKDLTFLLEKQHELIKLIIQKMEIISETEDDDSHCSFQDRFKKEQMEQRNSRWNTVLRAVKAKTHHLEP
Description: After centrifugation, a pellet of cells was formed in the bottom of the tube separating them from the supernatant solution.
(§1) The pelleted cells were re-suspended in 10 ml assay buffer and 90 μl aliquots (˜50,000 cells) per well delivered to a 96-well assay plate containing 10 μl of test compounds (1 mM in assay buffer, final concentration 100 μM) or buffer control and incubated at room temperature for 30 minutes.

[2] = biological target: T1, human TRPV1 (Homo sapiens, UniProt Q8NER1); assay: FLIPR Ca2+ assay, reduction of capsaicin activation of TRPV1; format: cell-based; parameters: expressed in transfected cells; conditions: for Ca++ counts: with compound
T1 sequence (Q8NER1 whole entry): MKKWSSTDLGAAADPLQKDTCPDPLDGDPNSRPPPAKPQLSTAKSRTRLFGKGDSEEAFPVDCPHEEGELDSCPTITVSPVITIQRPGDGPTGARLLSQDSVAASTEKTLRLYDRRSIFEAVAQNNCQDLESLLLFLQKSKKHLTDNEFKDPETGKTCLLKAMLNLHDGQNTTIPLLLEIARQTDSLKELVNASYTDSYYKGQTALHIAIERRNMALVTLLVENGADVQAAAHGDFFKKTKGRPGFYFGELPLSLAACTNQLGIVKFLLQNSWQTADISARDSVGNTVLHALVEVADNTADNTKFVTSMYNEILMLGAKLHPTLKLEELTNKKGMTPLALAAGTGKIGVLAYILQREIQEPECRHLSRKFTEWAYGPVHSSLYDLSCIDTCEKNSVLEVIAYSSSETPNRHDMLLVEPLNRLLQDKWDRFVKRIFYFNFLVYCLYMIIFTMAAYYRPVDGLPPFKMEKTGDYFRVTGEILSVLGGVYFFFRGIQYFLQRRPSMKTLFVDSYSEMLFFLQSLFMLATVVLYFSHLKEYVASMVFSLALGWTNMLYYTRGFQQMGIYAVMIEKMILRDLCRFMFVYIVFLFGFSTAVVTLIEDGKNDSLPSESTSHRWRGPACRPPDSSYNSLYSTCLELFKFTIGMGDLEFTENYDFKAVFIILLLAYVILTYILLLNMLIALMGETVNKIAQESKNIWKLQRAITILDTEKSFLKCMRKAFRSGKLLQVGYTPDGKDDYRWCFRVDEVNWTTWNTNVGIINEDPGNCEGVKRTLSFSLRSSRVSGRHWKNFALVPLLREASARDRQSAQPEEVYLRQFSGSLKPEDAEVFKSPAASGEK
Description: (§2) Cells were detached with addition of 10 ml of PBS (phosphate buffered saline) by hand shaking gently. Cells were transferred to a 50 ml tube and centrifuged at 850 rpm for 3 minutes to remove PBS.
The pelleted cells were re-suspended in 10 ml assay buffer and 90 μl aliquots (˜50,000 cells) per well delivered to a 96-well assay plate containing 10 μl of test compounds ([…]) or buffer control and incubated at room temperature for 30 minutes.

[3] = biological target: T1, human TRPV1; assay: FLIPR Ca2+ assay, reduction of hydrogen peroxide activation of TRPV1; format: cell-based; parameters: expressed in transfected cells; conditions: for Ca++ counts: with compound
[4] = concentration where the cooling effect can be clearly recognized; cited from earlier work
[5] = biological target: T1, human TRPV1; conditions: for percent hydrogen peroxide activation of TRPV1 compared to control agonist: control 350 nM capsaicin
Description: as §2, §1

[6] = Trained sensory panel, burn sensation after brushing with menthol dentifrice; format: in vivo, human; parameters: key: 0 = no burning to 60 = highest intensity; 7.5 difference = significant; conditions: scale 0-60
Description: (§3) For EXAMPLES 6 and 7 sensory evaluation studies of menthol and hydrogen peroxide activity were conducted using a methodology patterned after the techniques described in M. C. Meilgaard, et al., Sensory Evaluation Techniques, 4th Ed. (2007). In one study, a panel of 8-15 trained sensory experts evaluated the menthol or peroxide sensations experienced after brushing with a dentifrice containing the menthol or hydrogen peroxide and the respective TRPA1 or TRPV1 antagonists. Panelists brushed teeth with 1.5 grams of a dentifrice (containing coolant) or control (no coolant) and then expectorated. After brush expectoration, panelists evaluated the burn intensity, assigning a number between 0 (no burning) to 60 ([…]). After rinse expectoration, panelists evaluated burning intensity according to the same 0 to 60 scale. Evaluations were conducted at 5, 15, 30, 45, 60 minute, etc. time points. At each evaluation, panelists were instructed to breathe in through pursed lips and evaluate overall burning sensation. In this test, a numerical score difference from the control of 7.5 indicates user significant differences or definite reduction in burning at the specified time point. Measures between 4.0 to 7.5 indicate a noticeable trend in the specified parameter, which is not statistically significant, but noticeable.
For EXAMPLE 6 (TABLES 8 and 9), a panel of 14 trained sensory experts evaluated the sensory profile experienced after brushing with the dentifrice sample formulations shown in TABLES 6 and 7 containing high levels of menthol followed by rinsing with water. Panelists brushed teeth with 1.5 grams of a test dentifrice (containing high menthol levels) or control (no menthol) for 36 seconds and then expectorated. The dentifrice sample formulations (control and high L-Menthol) are shown below in TABLE 6 (with peppermint flavor) and TABLE 7 (with spearmint flavor). The dentifrices were made using conventional methods and are shown below with component amounts in weight % of total composition. […]
For TABLE 10 all the Samples had the same formulation as Sample E from TABLE 6, except for the Control which lacked menthol. After brushing or mouthwash expectoration, panelists evaluated the burning sensation, assigning a number between 0 (no sensation) to 60 (highest intensity sensation). Evaluations were conducted at 5, 10, 20 and 30 minute time points, following expectoration. At each evaluation, panelists were instructed to breathe in through pursed lips and evaluate overall sensation. In this test, a numerical score of 7.5 indicates a significant user noticeable sensation. Differences less than 7.5, but greater than 5.0 indicate the trending of the data on a specific attribute.

[7] = Trained sensory panel, burning and numbing sensation after hydrogen peroxide mouthwash; format: in vivo, human; parameters: key to Burning Sensation: 0 = no sensation, 60 = highest intensity sensation; conditions: scale 0-60
Description: as §3
For EXAMPLE 7, a panel of 10 trained sensory experts evaluated the sensory profile experienced after rinsing with 30 grams of a test mouthwash (containing hydrogen peroxide and TRPA1 or TRPV1 antagonist) or control (containing hydrogen peroxide and no TRPA1 or TRPV1 antagonist) for 30 seconds and then expectorated. After expectoration, panelists evaluated the sensorial profile (cooling, warming, burning, numbing, and astringency), assigning a number between 0 (no sensation) to 60 (highest intensity sensation). Evaluations were conducted at 2.5, 5, 10, 20, and 30 minute time points, following expectoration at each evaluation, panelists were instructed to breathe in through pursed lips and evaluate overall burning or numbing sensation. The hydrogen peroxide containing mouthwash formulations are shown below in TABLE 11. The mouthwash samples tested comprised a control having the components listed in TABLE 11 by weight % of the composition or the control formulation plus TRPA1 or TRPV1 antagonist, as shown in TABLE 12. The mouthwashes were made using conventional methods and are shown below with amounts in weight % of total composition.

[8] = Headspace GC reduction of 1-propanethiol by protectant (Michael Acceptor) compounds; conditions: for Percent Thiol Reduction vs. Control: 0.1% SLS
Description: For EXAMPLES 11 and 12 a 0.1% sodium lauryl sulfate (SLS) aqueous solution was prepared to contain either 1 ppm or 10 ppm of 1-propanethiol. SLS solution was added to the sample and control solutions to assist in solubilization of the more hydrophobic compounds. Control solutions contained surfactant and 1-propanethiol, while sample solutions contained these components plus a protectant compound added at either 0.01% or 0.05%. 100 μL aliquots of control or test solutions were aliquotted into a 22 mL headspace vial, vortexed for 30 seconds, and incubated for 30 minutes at 60 C in an oven. After that period, 1 mL of head space was sampled and injected into an Agilent 7890 gas chromatograph equipped with a sulfur chemiluminescence detector (GC-SCD). Peak areas of the 1-propanethiol control sample (no protectant compound added) were established by triplicate injection of the control sample. The area of the propanethiol peak produced from samples containing selected protectant molecules were then determined and ratioed to the 1-propanethiol control peak area, subtracted from 1, and multiplied by 100 to calculate percent reduction of the thiol peak, thus indicating the effectiveness of each protectant at reducing the level of thiol.
The samples in TABLE 17 were prepared by combining 1 ppm 1-propanethiol with 0.1% sodium lauryl sulfate with 1% of the test compounds. The volatile sulfurs were measured with headspace GC/MS using a SPEME column to capture the volatile sulfur.
The samples in TABLE 18 were prepared by combining either 1 or 10 ppm 1-propanethiol with 0.1% sodium lauryl sulfate with either 0.01% or 0.05% of the test compounds.

[9] = 2 Min 30 SEC After Expectoration, H2O2 mouthwash, antagonist levels as E48
[10] = 5 Min After Expectoration, H2O2 mouthwash, antagonist levels as E48
[11] = 10 Min After Expectoration, H2O2 mouthwash, antagonist levels as E48
[12] = 20 Min After Expectoration, H2O2 mouthwash, antagonist levels as E48
[13] = 30 Min After Expectoration, H2O2 mouthwash, antagonist levels as E48
[14] = After Expectoration, H2O2 mouthwash, antagonist levels as E48
[15] = antagonist 400 μM against 500 μM hydrogen peroxide

effect on TRPA1 receptor, in words (agonist / enhancer) [1]: TRPA1 agonists
Ca++ counts ([2]; Dose 1000, 350 nM Capsaicin): 13976
inhibition at 100 µM ([3]; antagonist 100 μM against 500 μM hydrogen peroxide): 53%
Ca++ counts ([3]; Dose 1000, 500 uM H2O2): 877
Compound: CC(=O)OC1CC2CCC1(C)C2(C)C (single isomer, unassigned; (-)) [(−)-Bornyl Acetate]
reduction of hydrogen peroxide activation of TRPV1, in words [3]: reduce hydrogen peroxide activation of TRPV1

Compound: CC(C)[C@@H]1CC[C@@H](C)C[C@@H]1O [1-neomenthol]
cooling threshold [4]: about 3,000 ppb

Compound: C=CCN=C=S [AITC, allyl isothiocyanate]
Average Ca++ Counts ([1]; AITC 50 μM alone, each Set 1-4): 8322.5 Counts and 14138.2 Counts and 15213.0 Counts and 11209.0 Counts
Ca2+ Count, TRPA1 ([1]; control agonist AITC 50 μM): 12219 Count

Ca2+ Count, TRPV1 ([5]; control agonist Capsaicin 350 nM): 16204 Count
Compound: COc1cc(CNC(=O)CCCC/C=C/C(C)C)ccc1O [Capsaicin]

Compound: CCCCCC1=C(C)CCC1=O [Dihydrojasmone]
% inhibition of TRPV1 activation by 350 nM Capsaicin ([2]; Dose 4000): 4%
Ca++ counts ([2]; Dose 4000, 350 nM Capsaicin): 11397
Burning Sensation Rating ([6]; 5 Min After Rinse, dentifrice Sample E (1% menthol) with antagonist levels as E42): 11.3
Burning Sensation Rating ([6]; 10 Min After Rinse, dentifrice Sample E (1% menthol) with antagonist levels as E42): 2.5
Burning Sensation Rating ([6]; 20 Min After Rinse, dentifrice Sample E (1% menthol) with antagonist levels as E42): 0.0
Burning Sensation Rating ([6]; 30 Min After Rinse, dentifrice Sample E (1% menthol) with antagonist levels as E42): 0.0
Burning Sensation Rating ([6]; After Expectoration, dentifrice Sample E (1% added menthol) with Apritone 200 ppm, Dihydrojasmone 6 ppm, Isobornyl Isobutyrate 100 ppm, α-heptyl-γ-valerolactone 100 ppm as named): 24.1
Burning Sensation Rating ([6]; After Rinse, dentifrice Sample E (1% menthol) with antagonist levels as E42): 21.3
Burning Sensation [7, 9]: 13.1
Numbing Sensation [7, 9]: 6.9
Burning Sensation [7, 10]: 8.9
Numbing Sensation [7, 10]: 6.3
Burning Sensation [7, 11]: 2.8
Numbing Sensation [7, 11]: 0.8
Burning Sensation [7, 12]: 0.8
Numbing Sensation [7, 12]: 0.0
Burning Sensation [7, 13]: 0.6
Numbing Sensation [7, 13]: 0.0
Burning Sensation [7, 14]: 16.9
Numbing Sensation [7, 14]: 6.9
Burning Sensation ([7]; Initial in Mouth, hydrogen peroxide mouthwash (TABLE 11) with Apritone 200 ppm, Isobornyl Isobutyrate 100 ppm, Dihydrojasmone 6 ppm as named, 10 panelists): 12.5
% inhibition of TRPV1 activation by 500 uM H2O2 ([3]; Dose 4000): 98%
% Reduction of Hydrogen Peroxide TRPV1 Activation [3, 15]: 98%
Ca++ counts ([3]; Dose 4000, 500 uM H2O2): 38
Percent Thiol Reduction vs. Control ([8]; 1 ppm 1-propanethiol, 0.01% test compound): 79.0%
Percent Thiol Reduction vs. Control ([8]; 1 ppm 1-propanethiol, 0.05% test compound): 92.1%
% Thiol Reduction ([8]; 1 ppm 1-propanethiol, 0.1% sodium lauryl sulfate, 1% test compound, headspace): significantly or completely reduced sulfur production
thiol reduction, comparison in words ([8]; 1 ppm 1-propanethiol, compound 0.01% and 0.05%): better reduction in thiol than delta damascone
Percent Thiol Reduction vs. Control ([8]; 10 ppm 1-propanethiol, 0.01% test compound): 41.3%
Percent Thiol Reduction vs. Control ([8]; 10 ppm 1-propanethiol, 0.05% test compound): 66.7%
thiol reduction, comparison in words ([8]; 10 ppm 1-propanethiol, compound 0.05%): close to delta damascone's thiol reduction

Compound: OO [H2O2, hydrogen peroxide]
percent hydrogen peroxide activation of TRPA1 compared to control agonist ([1]; H2O2 1 μM): 1.4%
percent hydrogen peroxide activation of TRPA1 compared to control agonist ([1]; H2O2 10 μM): 9.6%
percent hydrogen peroxide activation of TRPA1 compared to control agonist ([1]; H2O2 100 μM): 91.4%
Average Ca++ Counts ([1]; H2O2 200 μM alone, control of each Set 1-4): 5881.5 Counts and 8721.8 Counts and 10592.2 Counts and 7043.6 Counts
percent hydrogen peroxide activation of TRPA1 compared to control agonist ([1]; H2O2 200 μM): 111.7%
percent hydrogen peroxide activation of TRPA1 compared to control agonist ([1]; H2O2 500 μM): 129.1%
percent hydrogen peroxide activation of TRPA1 compared to control agonist ([1]; H2O2 1 mM): 123.4%
percent hydrogen peroxide activation of TRPA1 compared to control agonist ([1]; H2O2 10 mM): 101.3%
percent hydrogen peroxide activation of TRPA1 compared to control agonist ([1]; H2O2 100 mM): 296.7%
percent hydrogen peroxide activation of TRPV1 compared to control agonist ([5]; H2O2 1 μM): 1.51%
percent hydrogen peroxide activation of TRPV1 compared to control agonist ([5]; H2O2 10 μM): 3.10%
percent hydrogen peroxide activation of TRPV1 compared to control agonist ([5]; H2O2 100 μM): 17.45%
percent hydrogen peroxide activation of TRPV1 compared to control agonist ([5]; H2O2 200 μM): 21.18%
percent hydrogen peroxide activation of TRPV1 compared to control agonist ([5]; H2O2 500 μM): 30.21%
percent hydrogen peroxide activation of TRPV1 compared to control agonist ([5]; H2O2 1 mM): 41.13%
percent hydrogen peroxide activation of TRPV1 compared to control agonist ([5]; H2O2 10 mM): 62.81%
percent hydrogen peroxide activation of TRPV1 compared to control agonist ([5]; H2O2 100 mM): 209.29%

Compound: CC(C)[C@@H]1CC[C@@H](C)C[C@H]1O [L-menthol]
cooling threshold [4]: about 800 ppb

effect on TRPA1 receptor, in words (agonist / enhancer) [1]: TRPA1 agonists
Ca++ counts ([2]; Dose 4000, 350 nM Capsaicin): 10922
inhibition at 400 µM [3, 15]: 60%
Ca++ counts ([3]; Dose 4000, 500 uM H2O2): 737
Compound: CCC(=O)OCCOc1ccccc1 [Phenoxyethyl Propionate]
reduction of hydrogen peroxide activation of TRPV1, in words [3]: reduce hydrogen peroxide activation of TRPV1

effect on TRPA1 receptor, in words (agonist / enhancer) [1]: enhancer of TRPA1
Ca++ counts ([2]; Dose 4000, 350 nM Capsaicin): 10804
inhibition at 400 µM [3, 15]: 63%
Ca++ counts ([3]; Dose 4000, 500 uM H2O2): 682
Compound: CC(C)C(=O)OCc1ccc2c(c1)OCO2 [Piperonyl Isobutyrate]
reduction of hydrogen peroxide activation of TRPV1, in words [3]: reduces hydrogen peroxide activation of TRPV1

Compound: CC(C)[C@@H]1CC[C@@H](C)C[C@@H]1O [d-neomenthol]
cooling threshold [4]: about 25,000 ppb
